Measurements from US11691962B2 (eXIthera Pharmaceuticals, Inc., priority 2018, dated 2023).
Read-outs that look alike come from different tables or passages of the source.

Assays:
[1] = Aqueous solubility in PBS by HPLC-UV/VIS; type: physicochemical; settings: PBS pH 7.4, 2% DMSO, 24 h at room temperature; for solubility at 24 h: phosphate buffered saline, aqueous buffer, kinetic from dmso stock
Description: The following procedure was used to determine the aqueous solubility of a test compound in phosphate buffered saline (PBS-NaCl 137 mM, KCl 2.7 mM, Na2HPO4 8.1 mM, KH2PO4 1.5 mM, pH 7.4) in 96-well plate format by HPLC-UV/VIS analysis. The test compound was prepared at 200 μM in PBS from a 10 mM DMSO stock solution. The final DMSO concentration was 2%. The PBS buffer samples were mixed thoroughly followed by incubation at room temperature for 24 h. At the end of the incubation, the PBS buffer samples were centrifuged and supernatants analyzed by HPLC. The aqueous solubility (μM) of the test compound in PBS was determined by comparing the peak area of the principal peak in the calibration standard (200 μM) with the peak area of the corresponding peak in each of the PBS samples. The range of the assay was approximately 0.5 μM to 200 μM. The reference compounds used in each assay were metoprolol, rifampicin, ketoconazole, phenytoin, haloperidol, simvastatin, diethylstilbestrol, and tamoxifen ranking from fully soluble (200 μM) to poorly soluble (<1 μM).

[2] = Caco-2 cell permeability assay; type: in vitro ADME, human; settings: human, 37° C.; for Papp A→B at 60 min, 10 μM: Caco-2, apical to basolateral; for Papp B→A at 40 min, 10 μM: Caco-2, basolateral to apical
Description: The following procedure was used to determine the ability of a test compound to cross Caco-2 cells (human intestinal epithelial cells derived from a colorectal adenocarcinoma). The cells were seeded at 1×10^5 cells/cm^2 in 96-well Multiscreen™ plates (Millipore). Permeability assays were performed with the cells at days 21-25 post-seeding. Cells are typically used for 15 consecutive passages in culture.
This assay can be performed in either the apical to basolateral (A-B) or basolateral to apical (B-A) direction. The test compound was prepared at 10 μM in HBSS-MES (pH 6.5) or HBSS-HEPES (pH 7.4) with a final DMSO concentration of 1%. The working solution was then centrifuged and the supernatant added to the donor side. The assay plate was incubated at 37° C. with gentle shaking for 60 min or 40 min for the A-B or B-A assay, respectively. Samples were aliquoted from the donor side at time zero and the end point, and from the receiver side at the end point.
Reference compounds, propranolol (highly permeable), labetalol (moderately permeable), ranitidine (poorly permeable), and colchicine (P-glycoprotein substrate) were included in each assay.
Samples are analyzed by HPLC-MS/MS using selected reaction monitoring. The HPLC system consists of a binary LC pump with autosampler, a C-18 column, and a gradient.
The apparent permeability coefficient (Papp) of the test compound (Equation 2) and its recovery (Equation 3) are calculated as follows:
[formula] wherein A is the surface area of the cell monolayer (0.11 cm^2), C is concentration of the test compound expressed as peak area, D denotes donor, and R is receiver. “0”, “mid,” and “end” denote time at zero, mid-point, and end of the incubation, respectively. Δt is the incubation time. V is the volume of the donor or receiver.
This is most likely due to non-specific binding or degradation.

Thrombin = Thrombin (Homo sapiens (Human), UniProt P00734); assay: Dose response assay for protease inhibitors: thrombin; type: biochemical; settings: selectivity, thrombin over Factor XIa
How it was run: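 Fluorogenic AMC-peptide cleavage in 20 mM Hepes pH 7.4, 150 mM NaCl, 0.02% Tween 20; 100 μM stock substrate dilution (Glp-Pro-Arg-AMC for thrombin/trypsin; Pro-Phe-Arg-AMC or Boc-Leu-Gly-Arg-AMC for Factor Xa). Enzyme diluted to 0.5 nM, added last to two-fold compound series; kinetic read at 30° C, 30 min (Factor Xa 60 min); IC50 fitted.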

[3] = Plasma protein binding by equilibrium dialysis; type: in vitro ADME; settings: pH 7.4, pooled human plasma, 4 hours at 37° C., read-out: PPB (%)
Description: The following procedure was used to determine the plasma protein binding of a test compound in pooled plasma from human (mixed gender) via equilibrium dialysis in a 96-well plate format. The dialysate compartment was loaded with phosphate-buffered saline (pH 7.4) and the sample side was loaded with plasma spiked with the test compound at a concentration of 10 μM. After loading, samples were covered and incubated for 4 hours at 37° C. After incubation, each compartment was sampled, diluted with acetonitrile/buffer and centrifuged. The supernatants were analyzed by HPLC-MS/MS. The analyte peak areas obtained from HPLC-MS/MS analysis of each sample were used to calculate protein binding according to the following equation (Equation 4):
[formula] where: AREAp=Peak area of analyte in protein matrix; AREAb=Peak area of analyte in buffer.
The amount measured in the plasma compartment included both free and bound drug, while that on the buffer side represented free drug only; the differences were used to calculate the percentage plasma protein bound. Three reference compounds were tested in each assay: acebutolol, quinidine and warfarin.

Compound | solubility at 24 h [1] | Papp A→B at 60 min, 10 μM [2] | Papp B→A at 40 min, 10 μM [2] | Ratio: Thrombin/FXIa (Thrombin) | fraction unbound at 4 h, 10 μM ([3]; both) | fraction unbound at 4 h, 10 μM ([3]; both sexes) | Aqueous Solubility (uM, in PBS) [1]
CC[C@@H](NC(=O)N1C(=O)[C@H](Cc2ccnc(N)c2)[C@H]1C(=O)N(C)c1nccn1C)c1ccccc1Cl [Compound 1-83] | > 100 µM | < 10 ×10⁻⁶ cm/s | > 50 ×10⁻⁶ cm/s | H (“H” indicates 101-1000) | 0.05 to 0.09 | – | –
CC[C@@H](NC(=O)N1C(=O)[C@H](Cc2ccnc(N)c2)[C@H]1C(=O)N(C)c1cnn(C)c1)c1ccc(C)nc1 [Compound 1-18, (2S,3R)-3-((2-aminopyridin-4-yl)methyl)-N2-(1-methyl-1H-pyrazol-4-yl)-N1-((R)-1-(6-methylpyridin-3-yl)propyl)-N2-methyl-4-oxoazetidine-1,2-dicarboxamide] | > 100 µM | < 10 ×10⁻⁶ cm/s | < 10 ×10⁻⁶ cm/s | G (“G” indicates 1-100) | – | < 0.5 | –
CC[C@@H](NC(=O)N1C(=O)[C@H](Cc2cc(C)nc(N)c2)[C@H]1C(=O)N(C)c1nccn1C)c1cccc(Cl)c1 [Compound 1-43, (2S,3R)-3-((2-amino-6-methylpyridin-4-yl)methyl)-N2-(1-methyl-1H-imidazol-2-yl)-N1-((R)-1-(3-chlorophenyl)propyl)-N2-methyl-4-oxoazetidine-1,2-dicarboxamide] | > 100 µM | < 10 ×10⁻⁶ cm/s | 11 to 30 ×10⁻⁶ cm/s | H (“H” indicates 101-1000) | – | 0.1 to 0.5 | –
CC[C@@H](NC(=O)N1C(=O)[C@H](Cc2cc(C)nc(NC)c2)[C@H]1C(=O)N(C)c1nccn1C)c1cccc(Cl)c1 [Compound 1-46, (2S,3R)-3-((2-methylamino-6-methylpyridin-4-yl)methyl)-N2-(1-methyl-1H-imidazol-2-yl)-N1-((R)-1-(3-chlorophenyl)propyl)-N2-methyl-4-oxoazetidine-1,2-dicarboxamide] | > 100 µM | 11 to 30 ×10⁻⁶ cm/s | 11 to 30 ×10⁻⁶ cm/s | H (“H” indicates 101-1000) | – | 0.05 to 0.09 | –
(2S,3R)-3-((2-amino-6-methylpyridin-4-yl)methyl)-N2-(1-methyl-1H-imidazol-2-yl)-N1-((R)-1-(3-fluorophenyl)propyl)-N2-methyl-4-oxoazetidine-1,2-dicarboxamide [Compound 1-120] | – | – | – | H (“H” indicates 101-1000) | – | – | W (“W” indicates > 100 μM)
CC[C@@H](NC(=O)N1C(=O)[C@H](Cc2ccnc(N)c2)[C@H]1C(=O)N(C)c1cscn1)c1cccc(Cl)c1 [Compound 1-17, (2S,3R)-3-((2-aminopyridin-4-yl)methyl)-N2-(4-thiazolyl)-N1-((R)-1-(3-chlorophenyl)propyl)-N2-methyl-4-oxoazetidine-1,2-dicarboxamide] | > 100 µM | 11 to 30 ×10⁻⁶ cm/s | 11 to 30 ×10⁻⁶ cm/s | H (“H” indicates 101-1000) | – | 0.05 to 0.09 | –
CC[C@@H](NC(=O)N1C(=O)[C@H](Cc2cc(C)nc(N)c2)[C@H]1C(=O)N(C)c1ccnn1C)c1ccc(F)c(F)c1 [Compound 1-158, (2S,3R)-3-((2-amino-6-methylpyridin-4-yl)methyl)-N2-(1-methyl-1H-pyrazol-5-yl)-N1-((R)-1-(3,4-difluorophenyl)propyl)-N2-methyl-4-oxoazetidine-1,2-dicarboxamide] | > 100 µM | < 10 ×10⁻⁶ cm/s | 11 to 30 ×10⁻⁶ cm/s | I (“I” indicates > 500) | – | 0.05 to 0.09 | –
CC[C@@H](NC(=O)N1C(=O)[C@H](Cc2ccnc(N)c2)[C@H]1C(=O)N(C)c1ccnn1C)c1cccc(Cl)c1 [Compound 1-4, (2S,3R)-3-((2-aminopyridin-4-yl)methyl)-N2-(1-methyl-1H-pyrazol-5-yl)-N1-((R)-1-(3-chlorophenyl)propyl)-N2-methyl-4-oxoazetidine-1,2-dicarboxamide] | > 100 µM | 11 to 30 ×10⁻⁶ cm/s | 11 to 30 ×10⁻⁶ cm/s | I (“I” indicates > 500) | – | 0.1 to 0.5 | –
CC[C@@H](NC(=O)N1C(=O)[C@H](Cc2ccnc(NC)c2)[C@H]1C(=O)N(C)c1nccn1C)c1cccc(Cl)c1 [Compound 1-41, (2S,3R)-3-((2-methylaminopyridin-4-yl)methyl)-N2-(1-methyl-1H-imidazol-2-yl)-N1-((R)-1-(3-chlorophenyl)propyl)-N2-methyl-4-oxoazetidine-1,2-dicarboxamide] | > 100 µM | < 10 ×10⁻⁶ cm/s | 31 to 50 ×10⁻⁶ cm/s | H (“H” indicates 101-1000) | – | 0.1 to 0.5 | –
CC[C@@H](NC(=O)N1C(=O)[C@H](Cc2ccnc(N)c2)[C@H]1C(=O)N(C)c1nccn1C)c1cccc(C)c1 [Compound 1-80, (2S,3R)-3-((2-aminopyridin-4-yl)methyl)-N2-(1-methyl-1H-imidazol-2-yl)-N1-((R)-1-(3-methylphenyl)propyl)-N2-methyl-4-oxoazetidine-1,2-dicarboxamide] | > 100 µM | < 10 ×10⁻⁶ cm/s | 31 to 50 ×10⁻⁶ cm/s | H (“H” indicates 101-1000) | – | 0.1 to 0.5 | –
CC[C@@H](NC(=O)N1C(=O)[C@H](Cc2ccnc(N)c2)[C@H]1C(=O)N(C)c1nccn1C)C1CCCCC1 [Compound 1-55, (2S,3R)-3-((2-aminopyridin-4-yl)methyl)-N2-(1-methyl-1H-imidazol-2-yl)-N1-((R)-1-cyclohexylpropyl)-N2-methyl-4-oxoazetidine-1,2-dicarboxamide] | > 100 µM | < 10 ×10⁻⁶ cm/s | 31 to 50 ×10⁻⁶ cm/s | H (“H” indicates 101-1000) | – | 0.1 to 0.5 | –
CN(C(=O)[C@@H]1[C@@H](Cc2ccnc(N)c2)C(=O)N1C(=O)N[C@@H](C1CCCCC1)C(F)(F)F)c1ccn(C)n1 [Compound 1-32, (2S,3R)-3-((2-aminopyridin-4-yl)methyl)-N2-(1-methyl-1H-pyrazol-3-yl)-N1-((S)-1-cyclohexyl-2,2,2-trifluoroethyl)-N2-methyl-4-oxoazetidine-1,2-dicarboxamide] | > 100 µM | 11 to 30 ×10⁻⁶ cm/s | 11 to 30 ×10⁻⁶ cm/s | H (“H” indicates 101-1000) | – | 0.05 to 0.09 | –
CC[C@@H](NC(=O)N1C(=O)[C@H](Cc2cc(C)nc(N)c2)[C@H]1C(=O)N(C)c1ccn(C)n1)c1cccc(C)c1 [Compound 1-22, (2S,3R)-3-((2-amino-6-methylpyridin-4-yl)methyl)-N2-(1-methyl-1H-pyrazol-3-yl)-N1-((R)-1-(3-methylphenyl)propyl)-N2-methyl-4-oxoazetidine-1,2-dicarboxamide] | > 100 µM | < 10 ×10⁻⁶ cm/s | 11 to 30 ×10⁻⁶ cm/s | H (“H” indicates 101-1000) | – | 0.1 to 0.5 | –
